Usually IC50 stands for the midpoint of a concentration-inhibition curve.

Three compounds from patent US20080026952A1, “HCV replicon shuttle vectors” (priority 2005, published 2008) can be followed below.

Test [1] has as its system HCV replicons with NS5B from genotype-1a and genotype-1b clinical isolates in Huh-7 cells. The test can be described thus: Sensitivity of treatment naive NS5B clinical isolates versus reference replicons (FIG. 3). The following applies: pools of 96 clones per isolate, reference replicons Con1 (genotype-1b) and H77 (genotype-1a). Format: cell-based, HCV genotype-1a and genotype-1b. Here is the method:
Four million cured Huh7 cells were transfected with 5 μg of in vitro transcribed RNA using electroporation. Cells were then resuspended in 7.2 ml of DMEM containing 5% FBS and plated in 96-well plate at 50000 cells/well (in 90 μl final volume). Inhibitors were added 24 hours post-transfection in 3 fold dilutions at a final DMSO concentration of 1% and firefly luciferase reporter signal was read 72 hours after addition of inhibitors using the Luciferase Assay system (Promega, cat #E1501). The IC50 values were assessed as the inhibitor concentration at which a 50% reduction in the level of firefly luciferase reporter was observed as compared to the level of firefly luciferase signal without the addition of compounds. Results of studies testing the inhibitory effects of the compound, 2′-C-Methyl-Cytidine, on replication of pSS-1—1a_NS5B—5′AsiSI—3′RsrII and replicons with patient-derived NS5B sequences are shown in Table 2.
In order to test the sensitivity of HCV polymerase inhibitors across genetically diverse and treatment naive clinical isolates, the NS5B coding region from the isolates was amplified and cloned into the replicon shuttle replicons (clinical isolates from genotype-1a were cloned into pSS-1—1a—5′AsiSI_lacZAmC—3′RsrII and genotype-1b clinical isolates were cloned into pSC—1b—5′AsiSI_lacZAmC—3′RsrII). 96 molecular clones were pooled for each clinical isolate. […]
On the technique in general: A replicon is a self-replicating genome or part of one, used to study replication in cells.

The subject of test [2] is HCV replicon pSS-1_1a_NS5B_5′AsiSI_3′RsrII in Huh7 cells. The test can be described thus: Transient replicon phenotypic assay (firefly luciferase), reference shuttle vector. As to conditions: Hepatitis C virus, Huh-7, 72 h, read-out: 2′-C-Me-C IC50. The class given is cell-based, HCV genotype 1a (H77). Here is the method:
(§1) Five micrograms of DNA plasmids were linearized by Sca I restriction enzyme (Roche). After overnight digestion at 37° C., the DNA was purified using Qiagen PCR purification kit. One microgram of linearized DNA was used for the in vitro transcription using T7 Mega script kit following manufacturer's protocol (Ambion). After 2 hours of incubation at 37° C., DNase treatment was performed for 30 minutes at 37° C. to remove the DNA template. In vitro transcribed RNA was then purified using NucAway Spin Column following manufacturer's protocol (Ambion).
(§2) Cured hepatoma cell line Huh7 were cultured at 37° C. in a humidified atmosphere with 5% CO2 in Dulbecco's Modified Eagle Medium (DMEM) supplemented with Glutamax™ and […] sodium pyruvate (Cat #10569-010). The medium was further supplemented with 10% (v/v) FBS (Cat #16000-036) and 1% (v/v) penicillin/streptomycin (Cat #15140-122). All reagents were from Invitrogen/Gibco.
(§3) Four million cured Huh7 cells were transfected with 5 μg of in vitro transcribed RNA using electroporation. […] Inhibitors were added 24 hours post-transfection in 3 fold dilutions at a final DMSO concentration of 1% and firefly luciferase reporter signal was read 72 hours after addition of inhibitors using the Luciferase Assay system (Promega, cat #E1501). […]

In test [3] the test system is HCV replicon containing NS5B from Clinical Isolate Pt 7 in Huh7 cells. The test can be described thus: Transient replicon phenotypic assay (firefly luciferase), patient-derived NS5B Pt 7. The following applies: Hepatitis C virus, genotype 1a, Huh-7, 72 h, read-out: 2′-C-Me-C IC50. Format: cell-based, HCV genotype 1a. Here is the method: as §1, §2, §3
Test [4] concerns HCV replicon containing NS5B from Clinical Isolate Pt 6 in Huh7 cells. The test can be described thus: Transient replicon phenotypic assay (firefly luciferase), patient-derived NS5B Pt 6. Format: cell-based, HCV genotype 1a. As to conditions: Hepatitis C virus, genotype 1a, Huh-7, 72 h, read-out: 2′-C-Me-C IC50. Here is the method: as §1, §2, §3
The test system of test [5] is HCV replicon containing NS5B from Clinical Isolate Pt 9 in Huh7 cells. The test can be described thus: Transient replicon phenotypic assay (firefly luciferase), patient-derived NS5B Pt 9. Format: cell-based, HCV genotype 1a. As to conditions: Hepatitis C virus, genotype 1a, Huh-7, 72 h, read-out: 2′-C-Me-C IC50. Here is the method:
as §1, §2, §3

The subject of test [6] is HCV replicon containing NS5B from Clinical Isolate Pt 5 in Huh7 cells. The test can be described thus: Transient replicon phenotypic assay (firefly luciferase), patient-derived NS5B Pt 5. The class given is cell-based, HCV genotype 1a. The following applies: Hepatitis C virus, genotype 1a, Huh-7, 72 h, read-out: 2′-C-Me-C IC50. Here is the method: as §1, §2, §3
The subject of test [7] is HCV replicon containing NS5B from Clinical Isolate Pt 8 in Huh7 cells. The test can be described thus: Transient replicon phenotypic assay (firefly luciferase), patient-derived NS5B Pt 8. Format: cell-based, HCV genotype 1a. As to conditions: Hepatitis C virus, genotype 1a, Huh-7, 72 h, read-out: 2′-C-Me-C IC50. Here is the method:
as §1, §2, §3

`C1=NNSc2ccccc21` [benzothiadiazine]: the “potency across the NS5B clinical isolates as compared to the reference replicons” value in test [1] is “variable potencies”.

Consider `C[C@@]1(O)[C@H](O)[C@@H](CO)O[C@H]1n1ccc(N)nc1=O` [2′-C-Me-C, 2′-C-Methyl-Cytidine], for which the IC50 in test [2] was found to be 0.4 ± 0.03 µM; in test [3], 0.3 ± 0.05 µM; in test [4], 0.3 ± 0.04 µM; in test [5] it was 0.4 ± 0.06 µM; in test [6], 0.3 ± 0.05 µM; in test [7], 0.4 ± 0.07 µM.

For `O=C(O)c1cccs1` [thiophene-2-carboxylic acid], in test [1], the “potency across the NS5B clinical isolates as compared to the reference replicons” value is “variable potencies”.
